How the values were obtained:
[1] = for molar entropy: 101.33 kPa
[2] = Molar enthalpy of transition or fusion

O=P([O-])([O-])[O-].[Co+2].[Cs+] [cesium cobalt(II) phosphate]
[1]
Settings | molar entropy [J/K/mol]
5 K, Crystal 4, Vacuum adiabatic calorimetry | 0.4864
6 K, Crystal 4, Vacuum adiabatic calorimetry | 0.7965
7 K, Crystal 4, Vacuum adiabatic calorimetry | 1.172
8 K, Crystal 4, Vacuum adiabatic calorimetry | 1.621
9 K, Crystal 4, Vacuum adiabatic calorimetry | 2.062
10 K, Crystal 4, Vacuum adiabatic calorimetry | 2.528
15 K, Crystal 4, Vacuum adiabatic calorimetry | 5.047
20 K, Crystal 4, Vacuum adiabatic calorimetry | 8.117
25 K, Crystal 4, Vacuum adiabatic calorimetry | 11.62
30 K, Crystal 4, Vacuum adiabatic calorimetry | 15.46
35 K, Crystal 4, Vacuum adiabatic calorimetry | 19.44
40 K, Crystal 4, Vacuum adiabatic calorimetry | 23.53
45 K, Crystal 4, Vacuum adiabatic calorimetry | 27.67
50 K, Crystal 4, Vacuum adiabatic calorimetry | 31.83
60 K, Crystal 4, Vacuum adiabatic calorimetry | 40.01
70 K, Crystal 4, Vacuum adiabatic calorimetry | 47.95
80 K, Crystal 4, Vacuum adiabatic calorimetry | 55.65
90 K, Crystal 4, Vacuum adiabatic calorimetry | 63.08
100 K, Crystal 4, Vacuum adiabatic calorimetry | 70.28
110 K, Crystal 4, Vacuum adiabatic calorimetry | 77.27
120 K, Crystal 4, Vacuum adiabatic calorimetry | 84.06
130 K, Crystal 4, Vacuum adiabatic calorimetry | 90.54
140 K, Crystal 4, Vacuum adiabatic calorimetry | 96.95
150 K, Crystal 4, Vacuum adiabatic calorimetry | 103.18
160 K, Crystal 4, Vacuum adiabatic calorimetry | 109.17
170 K, Crystal 4, Vacuum adiabatic calorimetry | 115.16
180 K, Crystal 4, Vacuum adiabatic calorimetry | 120.89
190 K, Crystal 4, Vacuum adiabatic calorimetry | 126.55
200 K, Crystal 4, Vacuum adiabatic calorimetry | 132.03
210 K, Crystal 4, Vacuum adiabatic calorimetry | 137.36
220 K, Crystal 4, Vacuum adiabatic calorimetry | 142.59
230 K, Crystal 4, Vacuum adiabatic calorimetry | 147.75
240 K, Crystal 4, Vacuum adiabatic calorimetry | 152.74
250 K, Crystal 4, Vacuum adiabatic calorimetry | 157.64
260 K, Crystal 4, Vacuum adiabatic calorimetry | 162.55
270 K, Crystal 4, Vacuum adiabatic calorimetry | 167.29
273.15 K, Crystal 4, Vacuum adiabatic calorimetry | 168.78
280 K, Crystal 4, Vacuum adiabatic calorimetry | 171.94
290 K, Crystal 4, Vacuum adiabatic calorimetry | 176.52
298.15 K, Crystal 4, Vacuum adiabatic calorimetry | 180.17
300 K, Crystal 4, Vacuum adiabatic calorimetry | 181.01
310 K, Crystal 4, Vacuum adiabatic calorimetry | 185.5
313.4 K, Crystal 3, Vacuum adiabatic calorimetry | 186.91
313.4 K, Crystal 4, Vacuum adiabatic calorimetry | 186.83
320 K, Crystal 3, Vacuum adiabatic calorimetry | 190.07
330 K, Crystal 3, Vacuum adiabatic calorimetry | 194.48
340 K, Crystal 3, Vacuum adiabatic calorimetry | 198.8
350 K, Crystal 3, Small sample (50 mg) DSC | 203.12
360 K, Crystal 3, Small sample (50 mg) DSC | 207.45
370 K, Crystal 3, Small sample (50 mg) DSC | 211.69
380 K, Crystal 3, Small sample (50 mg) DSC | 215.76
390 K, Crystal 3, Small sample (50 mg) DSC | 219.92
400 K, Crystal 3, Small sample (50 mg) DSC | 223.91
410 K, Crystal 3, Small sample (50 mg) DSC | 227.9
420 K, Crystal 3, Small sample (50 mg) DSC | 231.81
430 K, Crystal 3, Small sample (50 mg) DSC | 235.63
440 K, Crystal 3, Small sample (50 mg) DSC | 239.46
450 K, Crystal 3, Small sample (50 mg) DSC | 243.2
460 K, Crystal 3, Small sample (50 mg) DSC | 246.94
470 K, Crystal 3, Small sample (50 mg) DSC | 250.6
480 K, Crystal 3, Small sample (50 mg) DSC | 254.26
486.9 K, Crystal 2, Small sample (50 mg) DSC | 257.5
486.9 K, Crystal 3, Small sample (50 mg) DSC | 256.83
490 K, Crystal 2, Small sample (50 mg) DSC | 258.58
500 K, Crystal 2, Small sample (50 mg) DSC | 262.16
510 K, Crystal 2, Small sample (50 mg) DSC | 265.65
514.4 K, Crystal 1, Small sample (50 mg) DSC | 267.98
514.4 K, Crystal 2, Small sample (50 mg) DSC | 267.06
520 K, Crystal 1, Small sample (50 mg) DSC | 270.05
530 K, Crystal 1, Small sample (50 mg) DSC | 273.38
540 K, Crystal 1, Small sample (50 mg) DSC | 276.71
550 K, Crystal 1, Small sample (50 mg) DSC | 279.95
560 K, Crystal 1, Small sample (50 mg) DSC | 283.19
570 K, Crystal 1, Small sample (50 mg) DSC | 286.27
580 K, Crystal 1, Small sample (50 mg) DSC | 289.34
590 K, Crystal 1, Small sample (50 mg) DSC | 292.42
600 K, Crystal 1, Small sample (50 mg) DSC | 295.41
610 K, Crystal 1, Small sample (50 mg) DSC | 298.32
620 K, Crystal 1, Small sample (50 mg) DSC | 301.15
630 K, Crystal 1, Small sample (50 mg) DSC | 303.98
640 K, Crystal 1, Small sample (50 mg) DSC | 306.8
650 K, Crystal 1, Small sample (50 mg) DSC | 309.55

Settings | Molar enthalpy of transition or fusion, Crystal 2, DSC [kJ/mol] | Molar enthalpy of transition or fusion, Crystal 3, DSC [kJ/mol] | Molar enthalpy of transition or fusion, Crystal 4, Adiabatic calorimetry [kJ/mol] | Triple point temperature, Crystal 2, DSC [K] | Triple point temperature, Crystal 3, DSC [K] | Triple point temperature, Crystal 4, Adiabatic calorimetry [K]
[1] | – | – | – | 514.4 | 486.9 | 313.4
[2] | 0.474 | 0.345 | 0.0305 | – | – | –
